Assay results published in US11149037B2, “Pyrazole MAGL inhibitors” (H. Lundbeck A/S, priority 2017, dated 2021).

Key:
Assay type in all cases: biochemical
[1] = target: FAAH (Mus musculus (Mouse), UniProt O08914); test: In vitro competitive activity-based protein profiling, mouse proteomes (brain membrane fraction or cell lysates); details: mouse proteome, read-out: FAAH % inh. 1 μM (mouse)
Procedure: (§1) In Vitro Competitive Activity-Based Protein Profiling.
(§2) Proteomes (mouse brain membrane fraction or cell lysates for mouse assays; human prefrontal cortex or PC3 cell membrane fractions for human assays) (50 μL, 1.0 or 2.0 mg/mL total protein concentration) were preincubated with varying concentrations of inhibitors at 37° C. After 30 min, FP-Rh or JW912 or HT-01 (1.0 μL, 50 μM in DMSO) was added and the mixture was incubated for another 30 min at 37° C. Reactions were quenched with SDS loading buffer (15 μL-4×) and run on SDS-PAGE. Following gel imaging, serine hydrolase activity was determined by measuring fluorescent intensity of gel bands corresponding to MAGL and FAAH using ImageJ 1.43u software.

[2] = target: MAGL (Mus musculus (Mouse), UniProt O35678); test: as above; details: mouse proteome, read-out: MAGL % inh. 1 μM (mouse)
Procedure: as §1, §2

[3] = target: MAGL (Homo sapiens (Human), UniProt Q99685); test: In vitro competitive activity-based protein profiling, human proteomes (prefrontal cortex or PC3 cell membrane fractions); details: human proteome; for inhibition at 10 µM: read-out: MAGL % inh. (human) @ 10 μM; for inhibition at 1 µM: read-out: MAGL % inh. 1 μM (human)
Procedure: as §1, §2

[4] = target: FAAH (Homo sapiens (Human), UniProt O00519); test: as above; details: human proteome; for inhibition at 1 µM: read-out: FAAH % inh. 1 μM (human)
Procedure: as §1, §2

Sequence of MAGL (Homo sapiens (Human), UniProt Q99685) (Q99685 whole entry): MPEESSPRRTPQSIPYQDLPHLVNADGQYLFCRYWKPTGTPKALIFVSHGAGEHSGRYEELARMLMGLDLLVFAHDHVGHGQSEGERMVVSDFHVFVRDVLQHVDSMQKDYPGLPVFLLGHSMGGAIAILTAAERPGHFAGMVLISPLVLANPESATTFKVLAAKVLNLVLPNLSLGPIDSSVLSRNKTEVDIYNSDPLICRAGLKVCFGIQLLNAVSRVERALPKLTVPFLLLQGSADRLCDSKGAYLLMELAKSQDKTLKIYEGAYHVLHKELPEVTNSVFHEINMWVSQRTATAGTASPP
Sequence of FAAH (Homo sapiens (Human), UniProt O00519) (O00519 whole entry): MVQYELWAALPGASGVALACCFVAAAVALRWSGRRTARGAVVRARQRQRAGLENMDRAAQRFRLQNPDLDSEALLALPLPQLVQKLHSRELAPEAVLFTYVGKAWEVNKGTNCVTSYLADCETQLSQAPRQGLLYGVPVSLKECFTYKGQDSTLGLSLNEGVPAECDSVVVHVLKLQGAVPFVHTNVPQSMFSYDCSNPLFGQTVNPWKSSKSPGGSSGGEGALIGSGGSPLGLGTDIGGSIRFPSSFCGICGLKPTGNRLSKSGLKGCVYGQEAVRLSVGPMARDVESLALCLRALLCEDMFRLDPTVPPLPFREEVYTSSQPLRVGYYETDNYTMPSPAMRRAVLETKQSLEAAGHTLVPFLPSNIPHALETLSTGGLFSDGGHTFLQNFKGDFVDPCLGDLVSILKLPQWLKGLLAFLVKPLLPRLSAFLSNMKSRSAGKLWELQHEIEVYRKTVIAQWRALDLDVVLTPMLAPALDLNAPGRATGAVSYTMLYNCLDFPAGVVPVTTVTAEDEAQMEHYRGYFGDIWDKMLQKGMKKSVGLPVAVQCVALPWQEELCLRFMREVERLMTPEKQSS
Sequence of FAAH (Mus musculus (Mouse), UniProt O08914) (O08914 whole entry): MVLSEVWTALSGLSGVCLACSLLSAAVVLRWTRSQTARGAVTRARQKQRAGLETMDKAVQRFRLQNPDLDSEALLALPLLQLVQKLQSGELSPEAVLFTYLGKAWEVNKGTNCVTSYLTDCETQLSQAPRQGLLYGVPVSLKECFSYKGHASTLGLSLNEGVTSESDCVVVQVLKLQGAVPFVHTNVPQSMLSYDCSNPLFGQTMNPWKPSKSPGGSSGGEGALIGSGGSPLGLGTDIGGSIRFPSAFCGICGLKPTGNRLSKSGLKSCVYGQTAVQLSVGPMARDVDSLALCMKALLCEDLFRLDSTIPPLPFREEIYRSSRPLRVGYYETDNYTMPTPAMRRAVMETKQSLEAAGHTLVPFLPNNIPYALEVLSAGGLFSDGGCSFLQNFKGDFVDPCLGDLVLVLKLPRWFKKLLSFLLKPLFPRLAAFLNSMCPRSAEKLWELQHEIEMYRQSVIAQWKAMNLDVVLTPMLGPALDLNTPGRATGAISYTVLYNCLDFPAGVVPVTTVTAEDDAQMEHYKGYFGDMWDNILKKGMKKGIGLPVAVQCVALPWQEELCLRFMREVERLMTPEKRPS
Sequence of MAGL (Mus musculus (Mouse), UniProt O35678) (O35678 whole entry): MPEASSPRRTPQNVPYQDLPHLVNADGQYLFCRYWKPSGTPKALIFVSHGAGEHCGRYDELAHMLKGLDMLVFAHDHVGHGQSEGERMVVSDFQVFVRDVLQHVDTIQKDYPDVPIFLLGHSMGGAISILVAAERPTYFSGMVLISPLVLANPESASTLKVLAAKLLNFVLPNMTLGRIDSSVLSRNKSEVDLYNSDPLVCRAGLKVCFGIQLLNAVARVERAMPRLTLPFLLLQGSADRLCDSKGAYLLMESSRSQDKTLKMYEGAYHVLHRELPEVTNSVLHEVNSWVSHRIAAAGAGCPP

**Q.** With CS(=O)(=O)Nc1ccn(C(=O)N2CCC3(CCCN3Cc3ccc(C(F)(F)F)cc3NCCCC(=O)O)CC2)n1 [Example 1, 4-((2-((8-(3-(methylsulfonamido)-1H-pyrazole-1-carbonyl)-1,8-diazaspiro[4.5]decan-1-yl)methyl)-5-(trifluoromethyl)phenyl)amino)butanoic acid] as the compound, how does the inhibition at 1 µM [1] read?
**A.** 0 to 25%

**Q.** And the inhibition at 1 µM [2]?
**A.** 0 to 25%

**Q.** And the inhibition at 10 µM [3]?
**A.** > 75%

**Q.** What about the inhibition at 1 µM [4] of the same compound?
**A.** 0 to 25%

**Q.** Which inhibition at 1 µM [1] does the source give for CN(Cc1ccc(C(F)(F)F)c(N2CCC(F)CC2)c1)C1(C)CCN(C(=O)n2ccc(NS(C)(=O)=O)n2)CC1 [Example 2, N-(1-(4-((3-(4-fluoropiperidin-1-yl)-4-(trifluoromethyl)benzyl)(methyl)amino)-4-methylpiperidine-1-carbonyl)-1H-pyrazol-3-yl)methanesulfonamide] here?
**A.** 0 to 25%

**Q.** And the inhibition at 1 µM [2]?
**A.** > 75%

**Q.** What about the inhibition at 1 µM [3] of the same compound?
**A.** > 75%

**Q.** And the inhibition at 1 µM [4]?
**A.** 0 to 25%

**Q.** What does the source list for CC(=O)Nc1ccn(C(=O)N2CCN(Cc3ccc(Cl)cc3OCC(=O)O)CC2)n1 [Example 3, 2-(2-((4-(3-acetamido-1H-pyrazole-1-carbonyl)piperazin-1-yl)methyl)-5-chlorophenoxy)acetic acid]?
**A.** inhibition at 1 µM [1]: 0 to 25%; inhibition at 1 µM [2]: > 75%; inhibition at 1 µM [3]: > 75%; inhibition at 1 µM [4]: 0 to 25%

**Q.** CS(=O)(=O)Nc1ccn(C(=O)N2CCC(Oc3ccc(C(F)(F)F)c(-c4nnco4)c3)CC2)n1 [Example 5, N-(1-(4-(3-(1,3,4-Oxadiazol-2-yl)-4-(trifluoromethyl)phenoxy)piperidine-1-carbonyl)-1H-pyrazol-3-yl)methanesulfonamide] was tested. Which inhibition at 1 µM [1] did it give?
**A.** 0 to 25%

**Q.** What about the inhibition at 1 µM [2] of the same compound?
**A.** > 75%

**Q.** What about the inhibition at 1 µM [3] of the same compound?
**A.** > 75%

**Q.** What about the inhibition at 1 µM [4] of the same compound?
**A.** 0 to 25%

**Q.** With CS(=O)(=O)Nc1ccn(C(=O)N2CCC(Oc3ccc(Cl)c(OC4CCCC4)c3)CC2)n1 [Example 6, N-(1-(4-(4-chloro-3-(cyclopentyloxy)phenoxy)piperidine-1-carbonyl)-1H-pyrazol-3-yl)methanesulfonamide] as the compound, how does the inhibition at 1 µM [1] read?
**A.** 0 to 25%

**Q.** What about the inhibition at 1 µM [2] of the same compound?
**A.** > 75%

**Q.** And the inhibition at 1 µM [3]?
**A.** > 75%

**Q.** And the inhibition at 1 µM [4]?
**A.** 0 to 25%

**Q.** With CS(=O)(=O)Nc1ccn(C(=O)N2CCC(Oc3cccc(C(F)(F)F)c3-c3nnco3)CC2)n1 [Example 7, N-(1-(4-(2-(1,3,4-oxadiazol-2-yl)-3-(trifluoromethyl)phenoxy)piperidine-1-carbonyl)-1H-pyrazol-3-yl)methanesulfonamide] as the compound, how does the inhibition at 1 µM [1] read?
**A.** 0 to 25%

**Q.** And the inhibition at 1 µM [2]?
**A.** > 75%

**Q.** What about the inhibition at 1 µM [3] of the same compound?
**A.** > 75%

**Q.** And the inhibition at 1 µM [4]?
**A.** 0 to 25%

**Q.** Which results are given for CS(=O)(=O)Nc1ccn(C(=O)N2CCN(Cc3ccc(Cl)c(N4CC5(CCOCC5)C4)c3)CC2)n1 [Example 8, N-(1-(4-(4-chloro-3-(7-oxa-2-azaspiro[3.5]nonan-2-yl)benzyl)piperazine-1-carbonyl)-1H-pyrazol-3-yl)methanesulfonamide]?
**A.** inhibition at 1 µM [1]: 0 to 25%; inhibition at 1 µM [2]: > 75%; inhibition at 1 µM [3]: > 75%; inhibition at 1 µM [4]: 0 to 25%

**Q.** CS(=O)(=O)Nc1ccn(C(=O)N2CCN(Cc3ccc(Cl)c(N4CC5CN(C(N)=O)CC5C4)c3)CC2)n1 (stereo not shown) [Example 9, 5-(2-Chloro-5-((4-(3-(methylsulfonamido)-1H-pyrazole-1-carbonyl)piperazin-1-yl)methyl)phenyl)hexahydropyrrolo[3,4-c]pyrrole-2(1H)-carboxamide] was tested. Which inhibition at 1 µM [1] did it give?
**A.** 0 to 25%

**Q.** What about the inhibition at 1 µM [2] of the same compound?
**A.** > 75%

**Q.** And the inhibition at 1 µM [3]?
**A.** > 75%

**Q.** What about the inhibition at 1 µM [4] of the same compound?
**A.** 0 to 25%

**Q.** With CS(=O)(=O)Nc1ccn(C(=O)N2CCN(Cc3ccc(C(N)=O)c(C(F)(F)F)c3)CC2)n1 [Example 10, 4-((4-(3-(methylsulfonamido)-1H-pyrazole-1-carbonyl)piperazin-1-yl)methyl)-2-(trifluoromethyl)benzamide] as the compound, how does the inhibition at 1 µM [1] read?
**A.** 0 to 25%

**Q.** What about the inhibition at 1 µM [2] of the same compound?
**A.** 0 to 25%

**Q.** And the inhibition at 10 µM [3]?
**A.** 50 to 75%

**Q.** What about the inhibition at 1 µM [4] of the same compound?
**A.** 0 to 25%

**Q.** Which inhibition at 1 µM [1] does the source give for CC(=O)Nc1ccn(C(=O)N2CCC3(CCCN3Cc3cc4cc(Cl)cc(Cl)c4[nH]3)CC2)n1 [Example 13, N-(1-(1-((5,7-dichloro-1H-indol-2-yl)methyl)-1,8-diazaspiro[4.5]decane-8-carbonyl)-1H-pyrazol-3-yl)acetamide] here?
**A.** 25 to 50%

**Q.** And the inhibition at 1 µM [2]?
**A.** > 75%

**Q.** And the IC50 [3]?
**A.** < 0.1 µM

**Q.** And the IC50 [4]?
**A.** 1 to 10 µM

**Q.** For CS(=O)(=O)Nc1ccn(C(=O)N2CCC(Oc3ccc(C(F)(F)F)cc3-c3nccs3)CC2)n1 [Example 15, N-(1-(4-(2-(thiazol-2-yl)-4-(trifluoromethyl)phenoxy)piperidine-1-carbonyl)-1H-pyrazol-3-yl)methanesulfonamide], which inhibition at 1 µM [1] is on record?
**A.** 25 to 50%

**Q.** And the inhibition at 1 µM [2]?
**A.** > 75%

**Q.** What about the inhibition at 1 µM [3] of the same compound?
**A.** > 75%

**Q.** What about the inhibition at 1 µM [4] of the same compound?
**A.** 0 to 25%

**Q.** How did the inhibition at 1 µM [1] turn out when CC(=O)Nc1ccn(C(=O)N2CC3CN(Cc4cc(Cl)cc(C(C)(C)O)c4)CC3C2)n1 (stereo not shown) [Example 16, N-(1-(5-(3-chloro-5-(2-hydroxypropan-2-yl)benzyl)octahydropyrrolo[3,4-c]pyrrole-2-carbonyl)-1H-pyrazol-3-yl)acetamide] was run?
**A.** 25 to 50%

**Q.** What about the inhibition at 1 µM [2] of the same compound?
**A.** > 75%

**Q.** What about the inhibition at 1 µM [3] of the same compound?
**A.** > 75%

**Q.** And the inhibition at 1 µM [4]?
**A.** 25 to 50%

**Q.** Which inhibition at 1 µM [1] does the source give for CC(=O)Nc1ccn(C(=O)N2CCN(Cc3cc(Cl)cc(Oc4ccc(Cl)cc4)c3)CC2)n1 [Example 17, N-(1-(4-(3-chloro-5-(4-chlorophenoxy)benzyl)piperazine-1-carbonyl)-1H-pyrazol-3-yl)acetamide] here?
**A.** > 75%

**Q.** What about the inhibition at 1 µM [2] of the same compound?
**A.** > 75%

**Q.** What about the inhibition at 1 µM [3] of the same compound?
**A.** > 75%

**Q.** What about the inhibition at 1 µM [4] of the same compound?
**A.** > 75%

**Q.** How did the inhibition at 1 µM [1] turn out when CC(=O)Nc1ccn(C(=O)N2CC3CN(Cc4cccc(Oc5ccccc5Cl)c4)CC3C2)n1 (stereo not shown) [Example 18, N-(1-(5-(3-(2-chlorophenoxy)benzyl)octahydropyrrolo[3,4-c]pyrrole-2-carbonyl)-1H-pyrazol-3-yl)acetamide] was run?
**A.** > 75%

**Q.** And the inhibition at 1 µM [2]?
**A.** > 75%

**Q.** What about the inhibition at 1 µM [3] of the same compound?
**A.** > 75%

**Q.** And the IC50 [3]?
**A.** < 0.1 µM

**Q.** And the inhibition at 1 µM [4]?
**A.** > 75%

**Q.** And the IC50 [4]?
**A.** 0.1 to 1 µM

**Q.** For C[C@@H]1C[C@H](N(C)Cc2ccc(Cl)c(N3CC4COCC4C3)c2)CCN1C(=O)n1ccc(NS(C)(=O)=O)n1 (stereo partly drawn) [Example 27, N-(1-((2R,4R)-4-((4-chloro-3-(tetrahydro-1H-furo[3,4-c]pyrrol-5(3H)-yl)benzyl)(methyl)amino)-2-methylpiperidine-1-carbonyl)-1H-pyrazol-3-yl)methanesulfonamide], which inhibition at 1 µM [1] is on record?
**A.** 0 to 25%

**Q.** What about the inhibition at 1 µM [2] of the same compound?
**A.** 0 to 25%

**Q.** And the inhibition at 10 µM [3]?
**A.** 0 to 25%

**Q.** Which results are given for CS(=O)(=O)Nc1ccn(C(=O)N2CCC(OCc3ccc(N4CCC(F)CC4)c(Cl)c3)CC2)n1 [Example 30, N-(1-(4-((3-chloro-4-(4-fluoropiperidin-1-yl)benzyl)oxy)piperidine-1-carbonyl)-1H-pyrazol-3-yl)methanesulfonamide]?
**A.** inhibition at 1 µM [1]: > 75%; inhibition at 1 µM [2]: > 75%; inhibition at 1 µM [3]: > 75%

**Q.** How did the inhibition at 1 µM [1] turn out when C[C@H]1CN(C(=O)n2ccc(NS(C)(=O)=O)n2)CCN1Cc1cnc(C(F)(F)F)c(N2CCC(F)CC2)c1 [Example 33, (S)—N-(1-(4-((5-(4-fluoropiperidin-1-yl)-6-(trifluoromethyl)pyridin-3-yl)methyl)-3-methylpiperazine-1-carbonyl)-1H-pyrazol-3-yl)methanesulfonamide] was run?
**A.** 0 to 25%

**Q.** What about the inhibition at 1 µM [2] of the same compound?
**A.** > 75%

**Q.** What about the inhibition at 1 µM [3] of the same compound?
**A.** > 75%

**Q.** What does the source list for CS(=O)(=O)Nc1ccn(C(=O)N2CC3CN(Cc4cccc(Oc5ccc(Cl)cc5)c4)CC3C2)n1 (stereo not shown) [Example 41, N-(1-(5-(3-(4-Chlorophenoxy)benzyl)octahydropyrrolo[3,4-c]pyrrole-2-carbonyl)-1H-pyrazol-3-yl)methanesulfonamide]?
**A.** inhibition at 1 µM [1]: > 75%; inhibition at 1 µM [2]: 0 to 25%

**Q.** Which results are given for CC(=O)Nc1ccn(C(=O)N2CC3CN(Cc4ccc(Oc5ccc(Cl)cc5)cc4)CC3C2)n1 (stereo not shown) [Example 44, N-(1-(5-(4-(4-Chlorophenoxy)benzyl)octahydropyrrolo[3,4-c]pyrrole-2-carbonyl)-1H-pyrazol-3-yl)acetamide]?
**A.** inhibition at 1 µM [1]: > 75%; inhibition at 1 µM [2]: > 75%

**Q.** Which results are given for CC(C)C(=O)Nc1ccn(C(=O)N2CCN(Cc3ccc(C(F)(F)F)cc3N3CCCC3)CC2)n1 [Example 161, N-(1-(4-(2-(Pyrrolidin-1-yl)-4-(trifluoromethyl)benzyl)piperazine-1-carbonyl)-1H-pyrazol-3-yl)isobutyramide]?
**A.** inhibition at 1 µM [1]: 0 to 25%; inhibition at 1 µM [2]: > 75%

**Q.** How did the inhibition at 1 µM [1] turn out when CC(=O)Nc1ccn(C(=O)N2CC3CN(Cc4ccc(Cl)cc4)CC3C2)n1 (stereo not shown) [Example 170, N-(1-(5-(4-Chlorobenzyl)octahydropyrrolo[3,4-c]pyrrole-2-carbonyl)-1H-pyrazol-3-yl)acetamide] was run?
**A.** 50 to 75%

**Q.** And the inhibition at 1 µM [2]?
**A.** > 75%

**Q.** How did the inhibition at 1 µM [1] turn out when CC(=O)Nc1ccn(C(=O)N2CC3CN(Cc4ccc(N5CCOCC5)c(C(F)(F)F)c4)CC3C2)n1 (stereo not shown) [Example 171, N-(1-(5-(4-Morpholino-3-(trifluoromethyl)benzyl)octahydropyrrolo[3,4-c]pyrrole-2-carbonyl)-1H-pyrazol-3-yl)acetamide] was run?
**A.** 50 to 75%

**Q.** And the inhibition at 1 µM [2]?
**A.** > 75%

**Q.** With CC(=O)Nc1ccn(C(=O)N2CC3CN(Cc4ccc(Cl)cc4Cl)CC3C2)n1 (stereo not shown) [Example 174, N-(1-(5-(2,4-Dichlorobenzyl)octahydropyrrolo[3,4-c]pyrrole-2-carbonyl)-1H-pyrazol-3-yl)acetamide] as the compound, how does the inhibition at 1 µM [1] read?
**A.** 50 to 75%

**Q.** And the inhibition at 1 µM [2]?
**A.** > 75%
